Literature values in US20250295592A1, “Method for Controlled Release Oral Drug Delivery” (priority 2024, published 2025).
Where two headings read alike, the source gives them in different places.

[1] = human stomach, acidic gastric contents

Row | SMILES | absorption from the stomach (in vivo) | absorption from the stomach [1]
1 | Cc1cc(=O)n(-c2ccccc2)n1C [antipyrine] | readily absorbed | –
2 | CC(=O)Oc1ccccc1C(=O)O [aspirin] | – | readily absorbed
3 | C=CCC1(C(C)CCC)C(=O)NC(=O)NC1=O (stereo not shown) [secobarbital] | – | readily absorbed
4 | CCCC(C)C1(CC)C(=O)NC(=S)NC1=O (stereo not shown) [thiopental] | – | readily absorbed
